Patent publication US9370529B2, “Tannin inhibitors of HIV” (priority 2012, dated 2016)

Experiments:
[1] = Cell-viability study (ATPLite Assay); type: cell-based; settings: human; HeLa37 cells, 40 h after treatment initiation
Method: HeLa37 cells were plated and treated with IA or IB as described above. Cell viability was monitored at 40 h after treatment initiation by ATPLite Assay (Packard Biosciences) per manufacturer's instructions.

[2] = system: CXCR4 tropic HIV NL4-3; experiment: HIV-infection study in HeLa37 cells (HIV antigen-positive cell count, % control); type: cell-based, HIV-1; settings: for TI (therapeutic index, cytotoxicity/antiviral activity): CC50/IC50; for IC50: Human immunodeficiency virus 1, NL43, HeLa37 cells, 40 h, MOI=0.01, FIG. 1/FIG. 2, read-out: IC50 (anti-HIV activity)
Method: Stocks of HIV-1 were generated by transfecting a 150 cm plate of 80% confluent HEK 293T cells with 75 μg of the HIV molecular clone pNL4-3 by using the CaPO4 procedure of F. L. Graham et al., J. Gen. Viol., 36, 59 (1977). Supernatants were collected at 48-h post-transfection, clarified to remove cell debris and frozen at −80° C. until needed. Virus production was assessed by reverse transcriptase activity in the viral stocks and by the single round of infection assay in HeLa37 cells described below. RT assays were performed as described by R. L. Wiley, PNAS USA, 83, 5038 (1986).
(§1) All extracts or fractions were resuspended in DMSO. 2.5×10^2 infectious particles of HIV (MOI=0.01) were combined with the concentrations of IA or IB noted in the figures. The amount of DMSO was adjusted so that equivalent concentrations of DMSO were used in all wells. […] The tannin and HIV mixture was added to 2.5×10^4 cells/well of HeLa37 cells in a 48-well format. The cells were maintained for 40 h at 37° C. in a CO2 incubator. Cells were fixed in 75% acetone/25% water and immunostained for HIV antigens with human anti-HIV antisera (1:500) followed by HRP-conjugated goat anti-human IgG (1:500). 3-amino-9-ethyl-carbazole was used as the horse radish peroxidase substrate. Plates were dried and wells were counted for the number of HIV antigen-positive cells.

[3] = system: CCR5 tropic HIV AD8; experiment: HIV-infection study in HeLa37 cells, CCR5 tropic virus; type: cell-based; settings: FIG. 2; equivalent concentrations
Method: as §1

Compound	CC50 at 40 h [1]	TI (therapeutic index, cytotoxicity/antiviral activity) [2]	IC50 [2]	Inhibition of CXCR4 (NL4-3) tropic HIV strain ([2]; FIG. 2)	Enhancement of the antiviral activity of AMD3100 ([2]; combination with 3 μM AMD3100, increasing concentrations of IB, HIV NL-4-3, FIG. 3)	Inhibition of CCR5 (AD8) tropic HIV strain [3]
CO[C@@H]1OC2COC(=O)c3cc(O)c(O)c(O)c3-c3c(cc(O)c(O)c3O)C(=O)O[C@H]2C(O)C1O (stereo partly drawn) [Tannin IA, (11aR,13S,14R,15R,15aS)-2,3,4,5,6,7,14,15-octahydroxy-13-methoxy-11,11a,13,14,15,15a-hexahydrodibenzo[g,i]pyrano[3,2-b][1,5]dioxacycloundecine-9,17-dione]	~100000 nM	~909	~110 nM			
CO[C@@H]1OC2COC(=O)c3cc(O)c(O)c(O)c3-c3c(cc(O)c(O)c3O)C(=O)O[C@H]2C(OC(=O)c2cc(O)c(O)c(O)c2)C1OC(=O)c1cc(O)c(O)c(O)c1 (stereo partly drawn) [Tannin IB, (11aR,13S,14R,15S,15aR)-2,3,4,5,6,7-hexahydroxy-13-methoxy-9,17-dioxo-9,11,11a,13,14,15,15a,17-octahydrodibenzo[g,i]pyrano[3,2-b][1,5]dioxacycloundecine-14,15-diyl-bis (3,4,5-trihydroxybenzoate)]	> 100000 nM	about 900	~120 nM	effectively able to inhibit	more than a log	effectively able to inhibit
